Source: patent publication US20260347338A1, “PYRIMIDINE/PYRIDINE DERIVATIVES OR SALTS THEREOF AND PHARMACEUTICAL COMPOSITIONS COMPRISING THE SAME” (YUHAN CORPORATION, priority 2023, published 2026)
pIC50: −log10 of the molar value. Where a name gives a salt, the structure may show the parent alone.

Molecular target: T1, human recombinant HPK1 (Homo sapiens, UniProt Q92918)
T1 construct: purchased BPS Bioscience
Test: Inhibitory activity against human recombinant HPK1 (TR-FRET)
Type: biochemical
Settings: ULight-p70S6K peptide, ATP at Km, room temperature, 1 hour, 0.32 to 1000 nM compound
How it was run: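 IC50 classes A–D use 10, 50 and 100 nM cut-offs, derived from TR-FRET signal inhibition relative to DMSO controls. Human recombinant HPK1 phosphorylated ULight-p70S6K peptide at Km ATP for 1 h, room temperature, pH 7.4; test range 0.32–1000 nM final, detection with Eu-labelled antibody after EDTA quench.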

T1 sequence (Q92918 whole entry): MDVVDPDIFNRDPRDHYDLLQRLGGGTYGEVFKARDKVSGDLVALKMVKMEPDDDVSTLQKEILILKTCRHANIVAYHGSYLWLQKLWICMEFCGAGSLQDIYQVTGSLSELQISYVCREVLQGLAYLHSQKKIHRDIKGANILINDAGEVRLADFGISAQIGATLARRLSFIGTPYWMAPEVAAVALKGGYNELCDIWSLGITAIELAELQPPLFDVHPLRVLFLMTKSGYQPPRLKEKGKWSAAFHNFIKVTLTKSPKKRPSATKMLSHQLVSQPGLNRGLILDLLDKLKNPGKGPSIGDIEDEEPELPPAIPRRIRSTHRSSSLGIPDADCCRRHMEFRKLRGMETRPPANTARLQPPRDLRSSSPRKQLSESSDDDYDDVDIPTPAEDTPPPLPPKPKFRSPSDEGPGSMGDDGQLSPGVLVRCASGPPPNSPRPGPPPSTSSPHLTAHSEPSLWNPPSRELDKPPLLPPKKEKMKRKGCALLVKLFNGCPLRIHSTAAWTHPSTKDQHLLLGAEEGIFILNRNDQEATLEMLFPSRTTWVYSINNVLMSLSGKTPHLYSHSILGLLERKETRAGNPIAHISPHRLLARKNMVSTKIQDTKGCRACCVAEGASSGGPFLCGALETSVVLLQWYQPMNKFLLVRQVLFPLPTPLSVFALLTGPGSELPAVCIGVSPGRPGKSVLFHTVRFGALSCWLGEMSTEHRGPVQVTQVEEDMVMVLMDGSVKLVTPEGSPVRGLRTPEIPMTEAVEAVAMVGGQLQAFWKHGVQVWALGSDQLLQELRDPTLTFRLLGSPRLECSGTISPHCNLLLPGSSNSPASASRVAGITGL

Structure (SMILES)	pIC50
COc1cccc(F)c1-c1nccc(Nc2cc(N3CC[C@@H](NC(C)=O)C3)c(-c3cnn(C4CCOCC4)c3)cn2)n1 [Example 126, (R)-N-(1-(2-((2-(2-fluoro-6-methoxyphenyl)pyrimidin-4-yl)amino)-5-(1-(tetrahydro-2H-pyran-4-yl)-1H-pyrazol-4-yl)pyridin-4-yl)pyrrolidin-3-yl)acetamide]	7.30 to 8.00
N[C@H]1CCCN(c2cc(Nc3cccc(N4CCOC4=O)n3)ncc2-c2cnn(C3CCOCC3)c2)C1 [Example 127, (S)-3-(6-((4-(3-aminopiperidin-1-yl)-5-(1-(tetrahydro-2H-pyran-4-yl)-1H-pyrazol-4-yl)pyridin-2-yl)amino)pyridin-2-yl)oxazolidin-2-one hydrochloride]	7.30 to 8.00
COc1cccc(F)c1-c1nccc(Nc2cc(N3CC[C@H](NC(C)=O)C3)c(-c3cnn(C4CCOCC4)c3)cn2)n1 [Example 128, (S)-N-(1-(2-((2-(2-fluoro-6-methoxyphenyl)pyrimidin-4-yl)amino)-5-(1-(tetrahydro-2H-pyran-4-yl)-1H-pyrazol-4-yl)pyridin-4-yl)pyrrolidin-3-yl)acetamide]	< 7.00
COc1cccc(F)c1-c1nc(Nc2cc(N3CCC[C@H](N)C3)c(-c3cnn(C4CCOCC4)c3)cn2)ccc1C(N)=O [Example 129, 6-((4-((S)-3-aminopiperidin-1-yl)-5-(1-(tetrahydro-2H-pyran-4-yl)-1H-pyrazol-4-yl)pyridin-2-yl)amino)-2-(2-fluoro-6-methoxyphenyl)nicotinamide hydrochloride]	≥ 8.00
COc1cccc(F)c1-c1nc(Nc2cc(N3CCC[C@H](N)C3)c(-c3cnn(C4CCOCC4)c3)cn2)ccc1C(=O)N(C)C [Example 130, 6-((4-((S)-3-aminopiperidin-1-yl)-5-(1-(tetrahydro-2H-pyran-4-yl)-1H-pyrazol-4-yl)pyridin-2-yl)amino)-2-(2-fluoro-6-methoxyphenyl)-N,N-dimethylnicotinamide hydrochloride]	≥ 8.00
COc1cccc(F)c1-c1nccc(Nc2cc(N3CCC[C@H](N)C3)c(-c3cn(C)nc3C(F)(F)F)cn2)n1 [Example 131, (S)-N-(4-(3-aminopiperidin-1-yl)-5-(1-methyl-3-(trifluoromethyl)-1H-pyrazol-4-yl)pyridin-2-yl)-2-(2-fluoro-6-methoxyphenyl)pyrimidin-4-amine hydrochloride]	7.00 to 7.30
COc1cccc(F)c1-c1nccc(Nc2cc(N3CCC[C@H](N)C3)c(-c3cnn(CC(=O)N(C)C)c3)cn2)n1 [Example 132, (S)-2-(4-(4-(3-aminopiperidin-1-yl)-6-((2-(2-fluoro-6-methoxyphenyl)pyrimidin-4-yl)amino)pyridin-3-yl)-1H-pyrazol-1-yl)-N,N-dimethylacetamide hydrochloride]	≥ 8.00
COc1cccc(F)c1-c1nccc(Nc2cc(N3CCC[C@H](N)C3)c(-c3cnn(CCO)c3)cn2)n1 [Example 133, (S)-2-(4-(4-(3-aminopiperidin-1-yl)-6-((2-(2-fluoro-6-methoxyphenyl)pyrimidin-4-yl)amino)pyridin-3-yl)-1H-pyrazol-1-yl)ethan-1-ol hydrochloride]	≥ 8.00
COc1cccc(F)c1-c1nccc(Nc2cc(N3CCC[C@H](N)C3)c(-c3cnn(CC(F)F)c3)cn2)n1 [Example 134, (S)-N-(4-(3-aminopiperidin-1-yl)-5-(1-(2,2-difluoroethyl)-1H-pyrazol-4-yl)pyridin-2-yl)-2-(2-fluoro-6-methoxyphenyl)pyrimidin-4-amine hydrochloride]	≥ 8.00
COc1cccc(F)c1-c1nccc(Nc2cc(N3CCC4(CCN(C)C4)CC3)c(-c3cnn(C(F)F)c3)cn2)n1 [Example 135, N-(5-(1-(difluoromethyl)-1H-pyrazol-4-yl)-4-(2-methyl-2,8-diazaspiro[4.5]decan-8-yl)pyridin-2-yl)-2-(2-fluoro-6-methoxyphenyl)pyrimidin-4-amine]	≥ 8.00
COc1cccc(F)c1-c1nccc(Nc2cc(N3CCC4(CCN(C)C4)CC3)c(-c3ccc(N4CCOCC4)nc3)cn2)n1 [Example 137, N-(2-(2-fluoro-6-methoxyphenyl)pyrimidin-4-yl)-4-(2-methyl-2,8-diazaspiro[4.5]decan-8-yl)-6′-morpholino-[3,3′-bipyridin]-6-amine]	≥ 8.00
N[C@H]1CCCN(c2cc(Nc3cccc(N4CCOC4=O)n3)ncc2-c2ccc(N3CCOCC3)nc2)C1 [Example 138, (S)-3-(6-((4-(3-aminopiperidin-1-yl)-6′-morpholino-[3,3′-bipyridin]-6-yl)amino)pyridin-2-yl)oxazolidin-2-one hydrochloride]	7.00 to 7.30
COc1cccc(F)c1-c1nc(Nc2cc(N3CCC[C@H](O)C3)c(C#CC3CCOCC3)cn2)ccc1C(=O)O [Example 139, 2-(2-fluoro-6-methoxyphenyl)-6-((4-((S)-3-hydroxypiperidin-1-yl)-5-((tetrahydro-2H-pyran-4-yl)ethynyl)pyridin-2-yl)amino)nicotinic acid]	≥ 8.00
COc1cccc(F)c1-c1nc(Nc2cc(N3CCC[C@H](O)C3)c(C#CC3CCOCC3)cn2)ccc1C(N)=O [Example 140, 2-(2-fluoro-6-methoxyphenyl)-6-((4-((S)-3-hydroxypiperidin-1-yl)-5-((tetrahydro-2H-pyran-4-yl)ethynyl)pyridin-2-yl)amino)nicotinamide]	≥ 8.00
COc1cccc(F)c1-c1nc(Nc2cc(N3CCC[C@H](O)C3)c(-c3cnn(C(F)F)c3)cn2)ccc1C(=O)N(C)C [Example 141, 6-((5-(1-(difluoromethyl)-1H-pyrazol-4-yl)-4-((S)-3-hydroxypiperidin-1-yl)pyridin-2-yl)amino)-2-(2-fluoro-6-methoxyphenyl)-N,N-dimethylnicotinamide]	< 7.00
COc1cccc(F)c1-c1nc(Nc2cc(N3CCC[C@H](O)C3)c(-c3cnn(C(F)F)c3)cn2)ccc1C(N)=O [Example 142, 6-((5-(1-(difluoromethyl)-1H-pyrazol-4-yl)-4-((S)-3-hydroxypiperidin-1-yl)pyridin-2-yl)amino)-2-(2-fluoro-6-methoxyphenyl)nicotinamide]	≥ 8.00
COc1cccc(F)c1-c1nc(Nc2cc(N3CCC[C@H](O)C3)c(-c3cnn(CC(F)(F)F)c3)cn2)ccc1C(N)=O [Example 143, 2-(2-fluoro-6-methoxyphenyl)-6-((4-((S)-3-hydroxypiperidin-1-yl)-5-(1-(2,2,2-trifluoroethyl)-1H-pyrazol-4-yl)pyridin-2-yl)amino)nicotinamide]	≥ 8.00
COCCn1cc(-c2cnc(Nc3ccc(C(N)=O)c(-c4c(F)cccc4OC)n3)cc2N2CCC[C@H](O)C2)cn1 [Example 144, 2-(2-fluoro-6-methoxyphenyl)-6-((4-((S)-3-hydroxypiperidin-1-yl)-5-(1-(2-methoxyethyl)-1H-pyrazol-4-yl)pyridin-2-yl)amino)nicotinamide]	≥ 8.00
COc1cccc(F)c1-c1nc(Nc2cc(N3CCC[C@H](O)C3)c(-c3cnn(C(F)F)c3)cn2)ccc1[N+](=O)[O-] [Example 145, (3S)-1-(5-(1-(difluoromethyl)-1H-pyrazol-4-yl)-2-((6-(2-fluoro-6-methoxyphenyl)-5-nitropyridin-2-yl)amino)pyridin-4-yl)piperidin-3-ol]	≥ 8.00
